Patent US20050202463A1, “Modulators of dimethylarginine dimethylaminohydrolase and methods of use thereof” (priority 2003, published 2005)

Key:
mice = test: plasma glucose clearance after i.p. insulin (insulin sensitivity); type: in vivo; conditions: wild-type female mice, ADMA 75 mg/kg i.p. after 4 h fasting, insulin injected 2 h later, compared to PBS-treated wild-type mice
Description: Experiments were performed to assess insulin sensitivity by measuring plasma glucose clearance rate in these DDAH transgenic mice. After 4 hours of fasting, wildtype female mice were injected intraperitoneally with either ADMA (75 mg/kg), which induces insulin resistance, or phosphate buffered saline (PBS); the same dosage was given to the transgenic mice (n=3 in each group). After two hours, insulin was injected; venous blood glucose was assayed by a glucometer every 5 minutes for an hour. The half-life of glucose disappearance from plasma was calculated using a first-order decay model; plasma ADMA was measured by HPLC.

ADMA levels = conditions: reported in the literature (Stuhlinger et al. 2002; Wheatcroft et al. 2003); cited from earlier work

| Compound | plasma glucose response to insulin (mice) | effect on ADMA levels (ADMA levels) |
| --- | --- | --- |
| CN(C)C(N)=NCCC[C@H](N)C(=O)O [ADMA, asymmetric dimethylarginine] | delayed and attenuated drop in plasma glucose in response to insulin |  |
| CN(C)C(=N)N=C(N)N [metformin] |  | decrease circulating ADMA levels |
